Assay results as given in ChEMBL document CHEMBL1817596, “Synthesis of a hypoxia-targeted conjugate of the cardioprotective agent 3',4'-dihydroxyflavonol and evaluation of its ability to reduce ischaemia/reperfusion injury” (Bioorg Med Chem Lett, 2011).
The source made the active and inactive calls. The calls are words filed in the database; no cut-off is given here.

Key:
Rattus norvegicus [1] = test: Cardioprotection activity in ischemia/reperfusion-induced Sprague-Dawley rat hindquarters assessed as reduction in circulating LDH level at 5 mg/kg, bolus dose administered 5 mins prior to reperfusion measured 3 hrs after reperfusion by UV-VIS spectrophotometry; type: functional, organism-based; set-up: dose 5 mg/kg
Rattus norvegicus [2] = test: Cardioprotection activity in ischemia/reperfusion-induced Sprague-Dawley rat hindquarters assessed as reduction in circulating LDH level at 5 mg/kg, bolus dose administered 5 mins prior to reperfusion measured 2 hrs after reperfusion by UV-VIS spectrophotometry; type: functional, organism-based; set-up: dose 5 mg/kg
Aorta [3] = test: Vasorelaxant activity in phenylephrine and KPSS-precontracted Sprague-Dawley rat thoracic aortic rings at 10^-10 to 10^-4 M measured after 20 mins; type: functional, tissue-based
Aorta [4] = test: Vasorelaxant activity in Sprague-Dawley rat thoracic aortic rings assessed as inhibition of phenylephrine-induced contraction at 10^-5 M after 20 mins; type: functional, tissue-based
[5] = Drug uptake in rat Con8 cells assessed as compound level in supernatant under normoxic condition at 10^-5 M after 3 hrs by HPLC analysis; type: ADME, cell-based; settings: con8, 3 h, 10 µM
[6] = Drug uptake in rat Con8 cells assessed as compound level in cell lysate under normoxic condition at 10^-5 M after 3 hrs by HPLC analysis; type: ADME, cell-based; settings: con8, 3 h, 10 µM
Rattus norvegicus [7] = test: Cardioprotection activity in ischemia/reperfusion-induced in Sprague-Dawley rat hindquarters assessed as reduction in MPO level at 5 mg/kg, bolus dose administered 5 mins prior to reperfusion by spectrophotometric analysis relative to control; type: functional, organism-based; set-up: dose 5 mg/kg
[8] = Drug uptake in rat Con8 cells assessed as compound level in cell lysate under hypoxic condition at 10^-5 M after 3 hrs by HPLC analysis; type: ADME, cell-based; settings: con8, 3 h, 10 µM
[9] = Drug uptake in rat Con8 cells assessed as compound level in supernatant under hypoxic condition at 10^-5 M after 3 hrs by HPLC analysis; type: ADME, cell-based; settings: con8, 3 h, 10 µM
Aorta [10] = test: Antioxidant activity in Sprague-Dawley rat thoracic aortic rings assessed as inhibition of NADPH-activated superoxide formation at 10^-6 to 10^-4 M by lucigenin-enhanced chemiluminescence assay; type: functional, tissue-based
Aorta [11] = test: Inhibition of acetylcholine-induced relaxation Sprague-Dawley rat thoracic aortic rings at 10^-5 M after 20 mins in presence of superoxide generator pyrogallol; type: functional; set-up: scale not given: the % may be the effect or the level left
Rattus norvegicus [12] = test: Cardioprotection activity in ischemia/reperfusion-induced Sprague-Dawley rat hindquarters assessed as reduction in circulating LDH level at 8.6 mg/kg, bolus dose administered 5 mins prior to reperfusion measured 30 mins to 3 hrs after reperfusion by UV-VIS spectrophotometry; type: functional, organism-based; set-up: dose 8.6 mg/kg
Rattus norvegicus [13] = test: Cardioprotection activity in ischemia/reperfusion-induced in Sprague-Dawley rat hindquarters assessed as reduction in MPO level at 8.6 mg/kg, bolus dose administered 5 mins prior to reperfusion by spectrophotometry relative to control; type: functional, organism-based; set-up: dose 8.6 mg/kg

EC50 (Aorta [3]) [µM]	Drug uptake [5]	Drug uptake [6]	Drug uptake [8]	Drug uptake [9]	Compound	Activity (Rattus norvegicus [1])	Activity (Rattus norvegicus [2])	Activity (Aorta [4])	Activity (Rattus norvegicus [7])	Activity (Aorta [10])	Activity (Aorta [3])	Activity (Aorta [11]) [%]	Activity (Rattus norvegicus [12])	Activity (Rattus norvegicus [13])
4.68	Active	Active	Active	Active	O=c1c(O)c(-c2ccc(O)c(O)c2)oc2ccccc12	Active	Active	Active	inactive					
	Active	Active	Active	Active	O=c1c(O)c(-c2ccc(O)c(O)c2)oc2ccc(-n3cc(Cn4ccnc4[N+](=O)[O-])nn3)cc12			inactive		Active	inactive	50	Active	Active
